Key:
[1] = compared with uric acid; background statement; cited from earlier work
[2] = human, in vivo; cited from earlier work
[3] = system: PEGylated recombinant pig-baboon chimeric uricase (PEG-PBC uricase; PBC uricase SEQ ID NO:2); assay: KM of PEGylated recombinant PBC uricase (studies not shown); assay type: biochemical, pig-baboon chimera; settings: similar kinetic properties to unmodified
Description: 100 mg of concentrated Sepahacryl S-200 PBC uricase (5 mg/ml, 2.9 μmol enzyme; 84.1 μmol lysine) in 0.1 M Na2CO3, pH 10.2 was allowed to react with a 2-fold excess (mol of PEG:mol uricase lysines) of an activated form of PEG at 4° for 60 min. The PEGylated uricase was freed from any unreacted or hydrolyzed PEG by tangential flow diafiltration. In this step the reaction was diluted 1:10 in 0.1 M Na2CO3, pH 10.2 and diafiltered vs. 3.5 vol 0.1 M Na2CO3, pH 10.2, then vs. 3.5 vol 0.05 M sodium phosphate, 0.15 M NaCl, pH 7.2. The filter-sterilized enzyme was stable at 4° for at least one month.
In this PEGylation reaction all of the uricase subunits were modified (FIG. 1, lane 7). In studies not shown, the PEGylated enzyme had similar kinetic properties to unmodified PBC uricase (KM 10–20 μM). Importantly, the modified enzyme was much more soluble than the unmodified enzyme at physiologic pH (>5 mg/ml in PBS vs. <1 mg/ml). The PEGylated enzyme could also be lyophilized and then reconstituted in PBS, pH 7.2, with minimal loss of activity. In other experiments, we compared the activities of this preparation of PEG-PBC uricase with the A. flavus uricase clinical preparation. […] However, in PBS, pH 7.2, the PEG-PBC and unmodified fungal enzymes differed in uricase activity by <2 fold.

[4] = target: T1, Aspergillus flavus uricase, clinical preparation (unmodified fungal enzyme) (Aspergillus flavus, UniProt Q00511); assay: Kinetic comparison of A. flavus uricase clinical preparation with PEG-PBC uricase; assay type: biochemical; settings: pH 8.6 in borate buffer; versus PEG-PBC uricase
T1 sequence (Q00511 2-302 limits assumed): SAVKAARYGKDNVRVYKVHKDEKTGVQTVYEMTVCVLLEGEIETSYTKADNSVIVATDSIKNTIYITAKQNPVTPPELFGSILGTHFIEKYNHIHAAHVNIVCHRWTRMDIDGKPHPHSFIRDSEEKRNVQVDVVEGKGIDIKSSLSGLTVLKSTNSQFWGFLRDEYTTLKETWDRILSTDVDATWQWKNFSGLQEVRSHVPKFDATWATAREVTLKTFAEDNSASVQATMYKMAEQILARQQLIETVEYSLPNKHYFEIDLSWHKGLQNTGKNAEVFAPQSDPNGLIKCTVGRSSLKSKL
Description: (§1) In this PEGylation reaction all of the uricase subunits were modified (FIG. 1, lane 7). In studies not shown, the PEGylated enzyme had similar kinetic properties to unmodified PBC uricase (KM 10–20 μM). […] The PEGylated enzyme could also be lyophilized and then reconstituted in PBS, pH 7.2, with minimal loss of activity. In other experiments, we compared the activities of this preparation of PEG-PBC uricase with the A. flavus uricase clinical preparation. […] However, in PBS, pH 7.2, the PEG-PBC and unmodified fungal enzymes differed in uricase activity by <2 fold.

[5] = system: recombinant pig-baboon chimeric uricase (PBC uricase; aa 1–225 of porcine uricase (SEQ ID NO:7) and aa 226–304 of baboon uricase (SEQ ID NO:6)), unmodified …; assay: KM of unmodified recombinant PBC uricase (studies not shown); assay type: biochemical, pig-baboon chimera
Description: as §1

For NC(=O)NC1NC(=O)NC1=O (stereo not shown) [allantoin], the “solubility relative to uric acid (times more soluble)” value [1] is listed as 80–100 times.

In the case of Oc1ncnc2[nH]ncc12 [allopurinol], the “patients who develop allergic reactions” value [2] is given as roughly 2% and the severe hypersensitivity syndrome [2] is given as roughly 0.4%.

With O=c1[nH]c(=O)c2[nH]c(=O)[nH]c2[nH]1 [uric acid] the Km [3] was 10 to 20 µM, the “KM, fold higher than PEG-PBC uricase” value [4] was 2 fold and the “Vmax, fold higher than PEG-PBC uricase” value [4] was 10–14 fold. For the same compound, the Km [5] was 10 to 20 µM.

Reference: US7056713B1, “Urate oxidase” (Duke University, priority 1998, dated 2006)
